From paper PMC2788677 (Journal of medicinal chemistry, 2009)

Tests used:
MOR [1] = assay: Radioligand binding assay, CHO cells stably expressing MOR, [3H]DAMGO; conditions: relative to dermorphin
MOR [2] = conditions: cited from earlier work

Substance: Dermorphin
- Rel. MOR affinity (MOR [1]): 1.0
- higher affinity than morphine for MOR (MOR [2]): 100 fold
